Measurements reported in patent publication US12053465B2, “KCC2 expression enhancing compounds and uses thereof” (Whitehead Institute for Biomedical Research, priority 2017, dated 2024).
“Also recorded” adds a separate entry of the source.

Tests used:
[1] = test system: KCC2 expression (KCC2-2A-luciferase reporter); experiment: KCC2-2A-luciferase reporter compound screening with RTT KCC2 reporter neurons; format: cell-based, human; conditions: for B Score: MECP2-null RTT human KCC2 reporter neurons, LINCS, SMART, ICCB libraries, Luc/CTG normalized to in-plate DMSO, hit = B score >3; for KCC2 reporter activity in RTT neurons: RTT KCC2-2A-luciferase reporter neurons vs in-plate DMSO
Method in brief: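 MECP2-null RTT human neurons carrying a KCC2-2A-luciferase reporter, differentiated 4 weeks, were treated with library compounds at 10 μM for 1–2 weeks at 37 °C. Lysate luciferase was normalized to CellTiter-Glo ATP per well and expressed as fold change over in-plate DMSO. Hits were called at B score >3.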

KCC2 expression [2] = experiment: Western blot of KCC2 in cultured human RTT neurons; format: cell-based; conditions: Western blot; for concentration at which treatment significantly increases KCC2 expression: cultured ESC-derived human RTT neurons; for KCC2 expression: cultured human RTT neurons
Method in brief: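 Cultured neurons lysed in RIPA buffer (pH 7.6) with sonication; immunoblotted on PVDF with KCC2 antibody (1:2000) overnight at 4° C., HRP secondary.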

KCC2 expression [3] = experiment: Western blot of KCC2 in organotypic mouse brain slices; format: cell-based; conditions: organotypic neonatal mouse brain slices, treated 7 days, vs DMSO, MeBIO or medium-only control
human RTT neurons = experiment: Neuronal morphology analysis of cultured human RTT neurons; format: cell-based; conditions: for neurite complexity (Sholl analysis): vs DMSO- or MeBIO-treated
Text: Moreover, a reduction in the number or the strength of excitatory glutamatergic synapses in RTT neurons has been observed in postmortem RTT patient brain samples (30), mouse models of RTT (53), and human stem cell-derived RTT neurons (54). Electrophysiology recording was utilized to assess whether KEECs could rescue the deficits in EGABA and excitatory synaptic transmission of RTT neurons. […] We further investigated whether the beneficial effect of KEECs is a direct result of the increases in neuronal KCC2 gene expression. […] Deficits in a number of morphological measurements, including nuclei size and neurite complexity and branching, are hallmarks of RTT neurons (54-56). […] To validate the morphological measurements, electrophysiological measurements of the neuronal membrane capacitance (Cm), an indicator of neuronal cell size (57) that is reduced in RTT neurons, were conducted. […] Fluorescent images of randomly-selected neurons were acquired on a Nikon Eclipse Ti epifluorescence microscope equipped with 20× lens. Nucleus size analysis of DAPI-stained neuronal nucleus were performed with ImageJ. Sholl analysis and measurements of the total neurite length and branch points were performed with the Simple Neurite Tracer plugin of the ImageJ software. Morphological analyses were carried out with about 60 randomly-selected neurons per treatment group. Image acquisition and analysis were carried out by different researchers, and automated analysis software pipeline were utilized to reduce human bias.

Structure (SMILES) | B Score [1] | KCC2 reporter activity in RTT neurons [1] | concentration at which treatment significantly increases KCC2 expression (KCC2 expression [2]) [µM] | KCC2 expression (KCC2 expression [2]) | KCC2 expression (KCC2 expression [2]; listed as KIN 001-043) | KCC2 protein level (KCC2 expression [3]) | nucleus size (human RTT neurons) | number of neurite branches (human RTT neurons) | total neurite length (human RTT neurons) | neurite complexity (Sholl analysis) (human RTT neurons)
O=C1Nc2cc(Br)ccc2/C1=C1/Nc2ccccc2/C1=N\O [BIO, (2Z,3E)-6′-bromo-3-(hydroxyimino)-[2,3′-biindolinylidene]-2′-one] | 3.42 | significant increase of KCC2 reporter activity | 0.3 | increased KCC2 expression levels significantly | increase KCC2 expression | enhanced KCC2 expression levels | significantly increase the nucleus size | significantly increase | significantly increase | significant increase in neurite complexity
O=C(c1ccc(/C=C/c2n[nH]c3ccccc23)cc1)N1CCNCC1 [KW-2449, (E)-(4-(2-(1H-indazol-3-yl)vinyl)phenyl)(piperazin-1-yl)methanone] | 5.45 | significant increase of KCC2 reporter activity | 0.1 | increase KCC2 expression; also recorded: significant enhancement of KCC2 expression |  | enhanced KCC2 expression levels | significantly increase the nucleus size | significantly increase | significantly increase | significant increase in neurite complexity
